± gives the expanded uncertainty stated by the source.
settings: 298.2 K; 101.33 kPa; Liquid; vibrating tube

SMILES | mass density [kg/m3]
CCCCCCCC[n+]1ccn(C)c1.[Cl-] [1-methyl-3-octylimidazolium chloride] | 1010.4 ± 1
CCCCCCCCCCCC [dodecane] | 746.6 ± 0.4
CCO [ethanol] | 784.93 ± 0.42
CCCCCCC [heptane] | 682.3 ± 0.4
CCCCCCCCCCCCCCCC [hexadecane] | 770.3 ± 0.4
CO [methanol] | 786.27 ± 0.42

Source: the NIST ThermoML archive (doi:10.1021/je025629r)
